Measurements taken from patent US11999727B2 (Tango Therapeutics, Inc., priority 2020, dated 2024).

Legend:
[1] = target: T1, PRMT5 (Homo sapiens, UniProt O14744); test: PRMT5 biochemical IC50 assay with SAM as cofactor; details: PRMT5, SAM as cofactor; read-out: SAM IC50
T1 construct: purchased Viva (custom protein)

[2] = target: T1, PRMT5; test: PRMT5 biochemical IC50 assay with MTA as cofactor; details: PRMT5, MTA as cofactor; read-out: MTA IC50
[3] = test system: HAP1 MTAP-deleted cell line; test: Viability assay, MTAP-deleted cell line; format: cell-based; details: Homo sapiens, HAP1, viability assay, MTAP-deleted cell line; read-out: HAP1 MTAP deleted viability
From the text: Table 1 additionally indicates IC50 values in a viability assay for the MTAP-deleted cell line (column 10), indicating the effect of treatment with compound on cell survival.

[4] = test system: HAP1 MTAP-deleted cell line; test: SDMA in-cell western assay, HAP1 MTAP-deleted; format: cell-based; details: for IC50: Homo sapiens, HAP1, SDMA in-cell western, HAP1 MTAP-deleted; for MTAP intact/deleted ratio: IC50 ratio HAP1 MTAP-intact / HAP1 MTAP-deleted, SDMA in-cell western
Outline: (§1)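 IC50 values come from SDMA signal quantified by in-cell western in two HAP1 lines, one with native MTAP levels and one lacking MTAP.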

[5] = test system: HAP1 MTAP-intact cell line; test: SDMA in-cell western assay, HAP1 MTAP-intact; format: cell-based; details: Homo sapiens, HAP1, SDMA in-cell western, HAP1 MTAP-intact; read-out: MTAP HAP1 intact IC50
Outline: as §1

[6] = target: T1, PRMT5; test: PRMT5 biochemical IC50 assay with no cofactor; details: PRMT5, no cofactor
From the text: Table 1 indicates IC50 values (μM) against PRMT5 for exemplary compounds in the presence of SAM as cofactor, with no cofactor, and with MTA as cofactor, respectively (columns 4-6). […] Ki values can be calculated from the IC50 values as described in the Examples section. As detailed in the Examples section, for the assay performed in the presence of SAM, IC50=Ki×1.5 (Ki=IC50/1.5).

[7] = read-out: HAP 1 MTAP deleted IC50
[8] = read-out: No Cofactor/ rel IC50
[9] = read-out: HAP1 MTAP deleted IC50

T1 sequence (O14744 whole entry): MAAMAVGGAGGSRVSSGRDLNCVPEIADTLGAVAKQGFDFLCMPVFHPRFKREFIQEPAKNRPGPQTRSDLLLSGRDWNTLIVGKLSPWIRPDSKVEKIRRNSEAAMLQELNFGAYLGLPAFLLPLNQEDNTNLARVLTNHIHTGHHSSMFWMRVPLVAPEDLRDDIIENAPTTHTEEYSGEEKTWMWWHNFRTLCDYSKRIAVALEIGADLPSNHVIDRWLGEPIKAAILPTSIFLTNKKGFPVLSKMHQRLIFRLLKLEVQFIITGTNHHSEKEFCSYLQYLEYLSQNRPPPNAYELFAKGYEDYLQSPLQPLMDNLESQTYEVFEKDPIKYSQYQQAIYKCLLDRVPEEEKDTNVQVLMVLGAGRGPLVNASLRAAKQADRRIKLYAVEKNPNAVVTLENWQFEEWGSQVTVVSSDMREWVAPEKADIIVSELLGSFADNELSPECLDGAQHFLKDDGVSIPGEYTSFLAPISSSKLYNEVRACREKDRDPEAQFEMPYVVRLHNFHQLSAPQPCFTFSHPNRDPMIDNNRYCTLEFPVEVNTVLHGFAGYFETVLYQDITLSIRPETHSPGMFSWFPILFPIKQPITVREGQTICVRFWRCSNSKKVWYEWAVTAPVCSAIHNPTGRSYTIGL
T1 sequence (Q9BQA1 whole entry partner): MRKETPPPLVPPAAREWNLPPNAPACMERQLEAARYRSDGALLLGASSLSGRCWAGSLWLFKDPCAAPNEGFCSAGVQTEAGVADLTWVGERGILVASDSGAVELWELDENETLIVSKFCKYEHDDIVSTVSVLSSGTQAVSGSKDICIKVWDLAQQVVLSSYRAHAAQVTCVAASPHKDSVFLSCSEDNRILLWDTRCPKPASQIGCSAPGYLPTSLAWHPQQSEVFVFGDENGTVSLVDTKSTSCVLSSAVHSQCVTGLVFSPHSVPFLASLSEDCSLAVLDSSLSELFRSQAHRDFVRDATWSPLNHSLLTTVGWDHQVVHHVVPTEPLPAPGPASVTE

IC50 [1] | IC50 [2] | IC50 [4, 7] | IC50 [5] | IC50 [6, 8] | IC50 [4, 9] | IC50 ([6]; read-out: No Cofactor/rel IC50) | SMILES | IC50 [3] | MTAP intact/deleted ratio [4]
50 to 500 nM | 50 to 500 nM | > 1000 nM | > 1000 nM | > 500 nM | – | – | NC(=O)c1cncc(NC(=O)C(=O)N2CCC3(CC2)OCC2CC23)c1 (stereo not drawn) [Compound 149, 5-(2-{3-Oxaspiro[bicyclo[3.1.0]hexane-2,4′-piperidine]-1′-yl}-2-oxoacetamido)pyridine-3-carboxamide] | > 10000 nM | C (an IC50 ratio of less than 3 fold)
> 500 nM | > 500 nM | > 1000 nM | > 1000 nM | > 500 nM | – | – | Cc1cnc(N)c(NC(=O)C(=O)N2CCCCC2c2ccccc2)c1 (stereo not drawn) [Compound 160, N-(2-amino-5-methylpyridin-3-yl)-2-oxo-2-(2-phenylpiperidin-1-yl)acetamide] | > 10000 nM | C (an IC50 ratio of less than 3 fold)
> 500 nM | 50 to 500 nM | > 1000 nM | > 1000 nM | > 500 nM | – | – | NC(=O)c1cncc(NC(=O)C(=O)N2CCCC3(CCSCC3)C2)c1 [Compound 166, 5-(2-Oxo-2-{9-thia-2-azaspiro[5.5]undecan-2-yl}acetamido)pyridine-3-carboxamide] | > 10000 nM | C (an IC50 ratio of less than 3 fold)
50 to 500 nM | 50 to 500 nM | 100 to 1000 nM | > 1000 nM | > 500 nM | – | – | NC(=O)c1cncc(NC(=O)C(=O)N2CCCCC2C2CCC(F)(F)CC2)c1 (stereo not drawn) [Compound 170, 5-[[2-[2-(4,4-difluorocyclohexyl)-1-piperidyl]-2-oxo-acetyl]amino]pyridine-3-carboxamide] | > 10000 nM | A (an IC50 ratio greater than or equal to 10 fold)
50 to 500 nM | < 50 nM | – | > 1000 nM | – | 100 to 1000 nM | 50 to 500 nM | Cc1cc(NC(=O)C(=O)N2CCCCC2C2CCC2)cnc1N (stereo not drawn) [Compound 182, N-(6-amino-5-methyl-3-pyridyl)-2-(2-cyclobutyl-1-piperidyl)-2-oxo-acetamide] | > 10000 nM | A (an IC50 ratio greater than or equal to 10 fold)
> 500 nM | > 500 nM | – | > 1000 nM | – | > 1000 nM | > 500 nM | CC1CC(C)C(c2ccccc2)N(C(=O)C(=O)Nc2cncc(C(N)=O)c2)C1 (stereo not drawn) [Compound 183, 5-(2-(3,5-dimethyl-2-phenylpiperidin-1-yl)-2-oxoacetamido)nicotinamide] | > 10000 nM | C (an IC50 ratio of less than 3 fold)
> 500 nM | 50 to 500 nM | – | > 1000 nM | – | > 1000 nM | > 500 nM | Cc1cncc(NC(=O)C(=O)N2CCCCC2c2ccccc2)c1N (stereo not drawn) [Compound 184, N-(4-amino-5-methylpyridin-3-yl)-2-oxo-2-(2-phenylpiperidin-1-yl)acetamide] | > 10000 nM | C (an IC50 ratio of less than 3 fold)
50 to 500 nM | 50 to 500 nM | – | > 1000 nM | – | 100 to 1000 nM | 50 to 500 nM | Cc1cc(NC(=O)C(=O)N2CCCCC2C2CCC(F)(F)CC2)cnc1N (stereo not drawn) [Compound 186, N-(6-amino-5-methyl-3-pyridyl)-2-[2-(4,4-difluorocyclohexyl)-1-piperidyl]-2-oxo-acetamide] | > 10000 nM | A (an IC50 ratio greater than or equal to 10 fold)
> 500 nM | 50 to 500 nM | – | > 1000 nM | – | > 1000 nM | > 500 nM | NC(=O)c1cncc(NC(=O)C(=O)N2CCC3(CCOCC3)CC2)c1 [Compound 191, 5-[[2-(3-Oxa-9-azaspiro[5.5]undecan-9-yl)-2-oxo-acetyl]amino]pyridine-3-carboxamide] | > 10000 nM | C (an IC50 ratio of less than 3 fold)
